Assay results: ChEMBL document CHEMBL2434896, “Carbonic anhydrase inhibitors. Synthesis of heterocyclic 4-substituted pyridine-3-sulfonamide derivatives and their inhibition of the human cytosolic isozymes I and II and transmembrane tumor-associated isozymes IX and XII” (Eur J Med Chem, 2013)
Activity calls are given as the source filed them. The calls are words filed in the database; no cut-off is given here.

What was measured:
IGROV-1 = assay: Growth inhibition of human IGROV1 cells at 10 uM after 48 hrs by sulforhodamine B assay; format: functional
T47D = assay: Growth inhibition of human T47D cells at 10 uM after 48 hrs by sulforhodamine B assay; format: functional
Hs-578T = assay: Growth inhibition of human Hs 578T cells at 10 uM after 48 hrs by sulforhodamine B assay; format: functional
NCI-H460 = assay: Growth inhibition of human NCI-H460 cells at 10 uM after 48 hrs by sulforhodamine B assay; format: functional
SF-295 = assay: Growth inhibition of human SF295 cells at 10 uM after 48 hrs by sulforhodamine B assay; format: functional
SK-MEL-5 = assay: Growth inhibition of human SK-MEL-5 cells at 10 uM after 48 hrs by sulforhodamine B assay; format: functional
HT-29 = assay: Growth inhibition of human HT-29 cells at 10 uM after 48 hrs by sulforhodamine B assay; format: functional
DU-145 = assay: Growth inhibition of human DU145 cells at 10 uM after 48 hrs by sulforhodamine B assay; format: functional
HOP-62 = assay: Growth inhibition of human HOP62 cells at 10 uM after 48 hrs by sulforhodamine B assay; format: functional
A549 = assay: Growth inhibition of human A549/ATCC cells at 10 uM after 48 hrs by sulforhodamine B assay; format: functional
HCT-15 = assay: Growth inhibition of human HCT15 cells at 10 uM after 48 hrs by sulforhodamine B assay; format: functional; settings: HCT-15, 48 h, read-out: GI
A498 = assay: Growth inhibition of human A498 cells at 10 uM after 48 hrs by sulforhodamine B assay; format: functional
ACHN = assay: Growth inhibition of human ACHN cells at 10 uM after 48 hrs by sulforhodamine B assay; format: functional
PC-3 = assay: Growth inhibition of human PC3 cells at 10 uM after 48 hrs by sulforhodamine B assay; format: functional
COLO 205 = assay: Growth inhibition of human COLO205 cells at 10 uM after 48 hrs by sulforhodamine B assay; format: functional
NCI/ADR-RES = assay: Growth inhibition of human NCI-ADR-RES cells at 10 uM after 48 hrs by sulforhodamine B assay; format: functional
OVCAR-8 = assay: Growth inhibition of human OVCAR8 cells at 10 uM after 48 hrs by sulforhodamine B assay; format: functional; settings: OVCAR-8, 48 h, read-out: GI
UACC-257 = assay: Growth inhibition of human UACC257 cells at 10 uM after 48 hrs by sulforhodamine B assay; format: functional
SK-MEL-28 = assay: Growth inhibition of human SK-MEL-28 cells at 10 uM after 48 hrs by sulforhodamine B assay; format: functional, cell-based
SN12C = assay: Growth inhibition of human SN12C cells at 10 uM after 48 hrs by sulforhodamine B assay; format: functional
SR = assay: Growth inhibition of human SR cells at 10 uM after 48 hrs by sulforhodamine B assay; format: functional; settings: read-out: GI
NCI-H226 = assay: Growth inhibition of human NCI-H226 cells at 10 uM after 48 hrs by sulforhodamine B assay; format: functional
UO-31 = assay: Growth inhibition of human UO31 cells at 10 uM after 48 hrs by sulforhodamine B assay; format: functional; settings: UO-31, 48 h, read-out: GI
MDA-MB-435 = assay: Growth inhibition of human MDA-MB-435 cells at 10 uM after 48 hrs by sulforhodamine B assay; format: functional
RXF 393 = assay: Growth inhibition of human RXF393 cells at 10 uM after 48 hrs by sulforhodamine B assay; format: functional
HL-60(TB) = assay: Growth inhibition of human HL-60(TB) cells at 10 uM after 48 hrs by sulforhodamine B assay; format: functional
SNB-19 = assay: Growth inhibition of human SNB19 cells at 10 uM after 48 hrs by sulforhodamine B assay; format: functional
SK-OV-3 = assay: Growth inhibition of human SKOV3 cells at 10 uM after 48 hrs by sulforhodamine B assay; format: functional
M14 = assay: Growth inhibition of human M14 cells at 10 uM after 48 hrs by sulforhodamine B assay; format: functional; settings: M14, 48 h, read-out: GI
SF-539 = assay: Growth inhibition of human SF539 cells at 10 uM after 48 hrs by sulforhodamine B assay; format: functional
NCI-H322M = assay: Growth inhibition of human NCI-H322M cells at 10 uM after 48 hrs by sulforhodamine B assay; format: functional; settings: read-out: GI
Malme-3M = assay: Growth inhibition of human MALME-3M cells at 10 uM after 48 hrs by sulforhodamine B assay; format: functional; settings: read-out: GI
OVCAR-4 = assay: Growth inhibition of human OVCAR4 cells at 10 uM after 48 hrs by sulforhodamine B assay; format: functional
SW-620 = assay: Growth inhibition of human SW620 cells at 10 uM after 48 hrs by sulforhodamine B assay; format: functional
KM12 = assay: Growth inhibition of human KM12 cells at 10 uM after 48 hrs by sulforhodamine B assay; format: functional
SNB-75 = assay: Growth inhibition of human SNB75 cells at 10 uM after 48 hrs by sulforhodamine B assay; format: functional
TK-10 = assay: Growth inhibition of human TK10 cells at 10 uM after 48 hrs by sulforhodamine B assay; format: functional
LOX IMVI = assay: Growth inhibition of human LOXIMVI cells at 10 uM after 48 hrs by sulforhodamine B assay; format: functional
NCI-H23 = assay: Growth inhibition of human NCI-H23 cells at 10 uM after 48 hrs by sulforhodamine B assay; format: functional
Carbonic anhydrase 9 = Carbonic anhydrase 9 (Homo sapiens, UniProt Q16790); assay: Inhibition of human carbonic anhydrase 9 after 15 mins by stopped flow CO2 hydration assay
EKVX = assay: Growth inhibition of human EKVX cells at 10 uM after 48 hrs by sulforhodamine B assay; format: functional
U-251 = assay: Growth inhibition of human U251 cells at 10 uM after 48 hrs by sulforhodamine B assay; format: functional
BT-549 = assay: Growth inhibition of human BT549 cells at 10 uM after 48 hrs by sulforhodamine B assay; format: functional
CCRF-CEM = assay: Growth inhibition of human CCRF-CEM cells at 10 uM after 48 hrs by sulforhodamine B assay; format: functional
NCI-H522 = assay: Growth inhibition of human NCI-H522 cells at 10 uM after 48 hrs by sulforhodamine B assay; format: functional
MCF7 = assay: Growth inhibition of human MCF7 cells at 10 uM after 48 hrs by sulforhodamine B assay; format: functional; settings: MCF7, 48 h, read-out: GI
HCC 2998 = assay: Growth inhibition of human HCC2998 cells at 10 uM after 48 hrs by sulforhodamine B assay; format: functional
786-0 = assay: Growth inhibition of human 786-0 cells at 10 uM after 48 hrs by sulforhodamine B assay; format: functional
SK-MEL-2 = assay: Growth inhibition of human SK-MEL-2 cells at 10 uM after 48 hrs by sulforhodamine B assay; format: functional
HCT-116 = assay: Growth inhibition of human HCT116 cells at 10 uM after 48 hrs by sulforhodamine B assay; format: functional; settings: HCT-116, 48 h, read-out: GI
CAKI-1 = assay: Growth inhibition of human CAKI-1 cells at 10 uM after 48 hrs by sulforhodamine B assay; format: functional; settings: CAKI-1, 48 h, read-out: GI
OVCAR-5 = assay: Growth inhibition of human OVCAR5 cells at 10 uM after 48 hrs by sulforhodamine B assay; format: functional
SF-268 = assay: Growth inhibition of human SF268 cells at 10 uM after 48 hrs by sulforhodamine B assay; format: functional
MOLT-4 = assay: Growth inhibition of human MOLT4 cells at 10 uM after 48 hrs by sulforhodamine B assay; format: functional; settings: MOLT-4, 48 h, read-out: GI
OVCAR-3 = assay: Growth inhibition of human OVCAR3 cells at 10 uM after 48 hrs by sulforhodamine B assay; format: functional
MDA-MB-231 = assay: Growth inhibition of human MDA-MB-231 cells at 10 uM after 48 hrs by sulforhodamine B assay; format: functional
RPMI-8226 = assay: Growth inhibition of human RPMI8226 cells at 10 uM after 48 hrs by sulforhodamine B assay; format: functional
UACC-62 = assay: Growth inhibition of human UACC62 cells at 10 uM after 48 hrs by sulforhodamine B assay; format: functional

SMILES: NS(=O)(=O)c1cnccc1N1CCN(c2ccccc2F)CC1
- growth inhibition (GI) (IGROV-1): inactive
- growth inhibition (GI) (T47D): inactive
- growth inhibition (GI) (Hs-578T): inactive
- growth inhibition (GI) (NCI-H460): inactive
- growth inhibition (GI) (SF-295): inactive
- growth inhibition (GI) (SK-MEL-5): inactive
- growth inhibition (GI) (HT-29): inactive
- growth inhibition (GI) (DU-145): inactive
- growth inhibition (GI) (HOP-62): inactive
- growth inhibition (GI) (A549): inactive
- inhibition of growth at 10 µM (HCT-15): 1%
- growth inhibition (GI) (A498): inactive
- growth inhibition (GI) (ACHN): inactive
- growth inhibition (GI) (PC-3): inactive
- growth inhibition (GI) (COLO 205): inactive
- growth inhibition (GI) (NCI/ADR-RES): inactive
- inhibition of growth at 10 µM (OVCAR-8): 2%
- growth inhibition (GI) (UACC-257): inactive
- growth inhibition (GI) (SK-MEL-28): inactive
- growth inhibition (GI) (SN12C): inactive
- inhibition of growth at 10 µM (SR): 6%
- growth inhibition (GI) (NCI-H226): inactive
- inhibition of growth at 10 µM (UO-31): 13%
- growth inhibition (GI) (MDA-MB-435): inactive
- growth inhibition (GI) (RXF 393): inactive
- growth inhibition (GI) (HL-60(TB)): inactive
- growth inhibition (GI) (SNB-19): inactive
- growth inhibition (GI) (SK-OV-3): inactive
- inhibition of growth at 10 µM (M14): 5%
- growth inhibition (GI) (SF-539): inactive
- inhibition of growth at 10 µM (NCI-H322M): 7%
- inhibition of growth at 10 µM (Malme-3M): 4%
- growth inhibition (GI) (OVCAR-4): inactive
- growth inhibition (GI) (SW-620): inactive
- growth inhibition (GI) (KM12): inactive
- growth inhibition (GI) (SNB-75): inactive
- growth inhibition (GI) (TK-10): inactive
- growth inhibition (GI) (LOX IMVI): inactive
- growth inhibition (GI) (NCI-H23): inactive
- Ki (Carbonic anhydrase 9): 0.148 µM
- growth inhibition (GI) (EKVX): inactive
- growth inhibition (GI) (U-251): inactive
- growth inhibition (GI) (BT-549): inactive
- growth inhibition (GI) (CCRF-CEM): inactive
- growth inhibition (GI) (NCI-H522): inactive
- inhibition of growth at 10 µM (MCF7): 6%
- growth inhibition (GI) (HCC 2998): inactive
- growth inhibition (GI) (786-0): inactive
- growth inhibition (GI) (SK-MEL-2): inactive
- inhibition of growth at 10 µM (HCT-116): 3%
- inhibition of growth at 10 µM (CAKI-1): 3%
- growth inhibition (GI) (OVCAR-5): inactive
- growth inhibition (GI) (SF-268): inactive
- inhibition of growth at 10 µM (MOLT-4): 2%
- growth inhibition (GI) (OVCAR-3): inactive
- growth inhibition (GI) (MDA-MB-231): inactive
- growth inhibition (GI) (RPMI-8226): inactive
- growth inhibition (GI) (UACC-62): inactive
